Experimental data: patent US7973219B2, “Method for producing transgenic plants resistant to weed control compounds which disrupt the porphyrin pathways of plants” (Sumitomo Chemical Company, Limited, priority 1998, dated 2011)

Key:
Format in all cases: cell-based, Escherichia coli
[1] = system: E. coli BT3/pACYCSP+pYAGY strain; assay: Growth of E. coli BT3/pACYCSP+pYAGY with herbicidal compound; details: 1 ppm, 18 hours culture, Table 15
[2] = system: E. coli BT3/pACYCSP+pRASSL4 strain; assay: Growth of E. coli BT3/pACYCSP+pRASSL4 with herbicidal compound; details: 1 ppm, 18 hours culture, Table 16
Source text: According to the description of Gibson, L. C. D. et al., Proc. Natl. Acad. Sci. USA, 92; p 1941 (1995), the DNA fragment containing bchH gene prepared in Example 1 was digested with the restriction enzymes NdeI and BglII. The resultant DNA fragment was inserted between NdeI restriction site and BamHI restriction site of expression vector pET11a (manufactured by Stratagene) to obtain plasmid pETBCH (FIG. 1). This plasmid pETBCH was introduced into E. coli BL21(DE3) strain competent cells (manufactured by Stratagene) according to the manual attached to the competent cells to obtain E. coli BL21(DE3)/pETBCH strain. […] When the absorbance at 600 nm of the liquid culture medium became about 0.6, isopropyl β-D-thiogalactopyranoside (IPTG) was added to the liquid culture medium so that the final concentration was 0.4 mM, and the culture was continued for about additional 20 hours. […]
These E. coli strains were inoculated into YPT medium containing 1 ppm of the PPO inhibitory-type herbicidal compound represented by Structure 8, 100 μg/ml ampicillin, 15 μg/ml chloramphenicol, 10 μg/ml kanamycin, 10 μg/ml hemin and 50 μg/ml aminolevulinic acid, cultured under dark conditions or light conditions according to the same manner as in Example 2. Then, 18 hours after initiation of culture, the absorbance of the liquid culture medium was measured at 600 nm. […]

[3] = system: E. coli BT3/pACYCSP+pTVGMP strain; assay: Growth of E. coli BT3/pACYCSP+pTVGMP (variant soybean PPO) with herbicidal compound; details: 18 hours culture, Table 7
Source text: According to the description of Gibson, L. C. D. et al., Proc. Natl. Acad. Sci. USA, 92; p 1941 (1995), the DNA fragment containing bchH gene prepared in Example 1 was digested with the restriction enzymes NdeI and BglII. The resultant DNA fragment was inserted between NdeI restriction site and BamHI restriction site of expression vector pET11a (manufactured by Stratagene) to obtain plasmid pETBCH (FIG. 1). This plasmid pETBCH was introduced into E. coli BL21(DE3) strain competent cells (manufactured by Stratagene) according to the manual attached to the competent cells to obtain E. coli BL21(DE3)/pETBCH strain. The strain was inoculated into 1.5 ml LB liquid culture medium (1% tryptone, 0.5% yeast extract, 0.5% NaCl) containing 100 μg/ml ampicillin in a tube (14×10 mm), and the tube was covered with aluminum foil (hereinafter referred to as dark conditions), cultured with shaking at 37° C. under light of fluorescent lamp (about 8000 lux). When the absorbance at 600 nm of the liquid culture medium became about 0.6, isopropyl β-D-thiogalactopyranoside (IPTG) was added to the liquid culture medium so that the final concentration was 0.4 mM, and the culture was continued for about additional 20 hours. […] In contrast to this, when E. coli BL21(DE3)/pETBCH strain was cultured according to the same manner (with IPTG) except that the tube was not covered with aluminum foil (hereinafter referred to as light conditions), E. coli grew and turned red as above.
Plasmids pTVGMP and pTV118N prepared in Example 11 were introduced into E. coli BT3/pACYCSP strain prepared in Example 3 respectively according to the method described in Flanahan, D. J., Mol. Biol., 166; p 557 (1983). E. coli BT3/pACYCSP+pTVGMP strain bearing plasmids pACYCSP and pTVGMP, and E. coli BT3/pACYCSP+pTV118N strain bearing plasmids pACYCSP and pTV118N were obtained by culturing the above strains in YPT medium containing 100 μg/ml ampicillin, 15 μg/ml chloramphenicol and 10 μg/ml kanamycin.
These E. coli strains were inoculated into YPT medium containing 10 or 1 ppm of PPO inhibitory-type herbicidal compound represented by Structure 8, 100 (ig/ml ampicillin, 15 μg/ml chloramphenicol, 10 μg/ml kanamycin, 10 μg/ml hemin and 50 μg/ml aminolevulinic acid, cultured under dark conditions or light conditions according to the same manner as in Example 2. Then, 18 hours after initiation of culture, the absorbance of liquid culture medium was measured at 600 nm. By taking the absorbance of the medium without the herbicidal compound as 1, the relative value of the absorbance of the medium containing the herbicidal compound was calculated.

With `C#CCOc1cc(N2C(=O)C3=C(CCCC3)C2=O)c(F)cc1Cl` [Structure 8] the Relative absorbance ([1]; in the dark) was 0.99, the Relative absorbance ([1]; in the light) was 0.48 and the Relative absorbance ([2]; in the dark) was 0.98. For the same compound, the Relative absorbance ([2]; in the light) was 1.1, the Relative absorbance ([3]; in the dark, 1 ppm) was 0.94 and the Relative absorbance ([3]; in the dark, 10 ppm) was 0.91. The Relative absorbance ([3]; in the light, 1 ppm) was 0.85 and the Relative absorbance ([3]; in the light, 10 ppm) was 0.33.
